This is an account of results in patent US9358226B2, “Triarylmethane analogs and their use in treating cancers” (Emory University, priority 2007, dated 2016).

SMILES strings stand for the structures. Like-named read-outs stand apart in the source and are kept apart here.

Data set [1] relates to P. falciparum D6 (Chloroquine Sensitive). In words: Malaria model, chloroquine sensitive P. falciparum. The class given is cell-based. On the procedure: (§1) The compounds were tested in a malaria model using both chloroquine sensitive and multidrug resistant P. falciparum. The malaria model was the same as published in JAC Advance Access published online on Jul. 30, 2008, Journal of Antimicrobial Chemotherapy, doi:10.1093/jac/dkn315, the contents of which are hereby incorporated by reference, and the data is summarized in the table below.
(§2) Briefly, the assay involves exposing both chloroquine sensitive and multidrug resistant P. falciparum to the compounds. After one hour of exposure to the highest concentration of the compound, followed by removal of the compound, the growth of all stages of P. falciparum was observed. The reduction in the growth stages was then compared with untreated control parasites. […] The presence of strong inhibition (defined herein as 10% growth) of all parasite stages was evaluated when the parasites were exposed to various concentrations of various compounds.

Data set [2] deals with P. falciparum Dd2 (Multidrug Resistant). In words: Malaria model, multidrug resistant P. falciparum. It is filed as cell-based. On the procedure:
as §1, §2

For another data set, the system named is ang-2 mRNA. As to the kind of experiment: Quantitative reverse transcription-PCR for ang-2 in bEnd.3 cells. The note with it: 10 μM, 6.5 hours. It is filed as cell-based, murine. On the procedure: bEnd.3 cells were seeded equally into six T-75 flasks and 24 hours later were treated with 0, 1, 5, 10, 15, and 20 μM concentrations of gentian violet (Sigma-Aldrich, no. G2039) in ethanol for 6.5 hours. RNA was extracted and purified using TRI reagent (Sigma-Aldrich, T9424) and measured using spectrophotometer (Perkin-Elmer UV/VIS, Wellesley, Mass.). RNA (1 μg) was used for DNase Amplification (Invitrogen, no. 18068-015, Carlsbad, Calif.) followed by first-strand synthesis for reverse transcription-PCR (Invitrogen SuperScript, no. 12371-019). 96-well Optical Reaction Plate (ABI PRISM, no. 128, Applied Biosystems, Foster City, Calif.) was used for the reverse transcription-PCR reaction. A measure of 2.5 μl of template, which had been diluted 1:10 in crosslinked water, was used in each well and the experiment was performed in triplicate. Ang pt2 (Applied Biosystems, Taqman Gene Expression Assay, Mm00545822_ml) and 18S (Applied Biosystems Taqman Gene Expression Assay, Hs99999901_sl) primers were used along with crosslinked molecular grade water (Cellgro, Mediatech, Inc., Herndon, Va.) and master mix (Applied Biosystems TaqMan Fast Universal PCR Master Mix (2^x)). The reaction was run on the 7900 Applied Biosystems Reader for Absolute Quantification for 96-well plates. C values were analyzed by ΔΔCt method, and the standard error of the mean was calculated (FIG. 3b). The same protocol was used for treatment with brilliant green (Sigma, no. B6756), except that the concentrations used were 0, 0.1, 0.25, 0.5, and 0.75 μM (FIG. 3a).

The test system of the next data set is T. brucei. In words: Parasitemia in mice injected with T. brucei. It is filed as in vivo. On the procedure:
In one study, the parasite was T. brucei. Mice were injected with parasites (5,000 parasites/mouse), and injected (s.c) with imipramine blue (1 mg/mice/day) starting from the day the mice were injected with parasites. The parasitemia level in blood was counted on each following day.
The experiment was repeated with IV administration of imipramine blue (100 μg of imipramine blue). […] Accordingly, it is important to find a therapeutic window (where treatment of parasitemia can be effected, without unwanted toxic effects). This therapeutic window is in the range of between about 150 and 250 μg.

For a further data set, the system named is Leishmania amazonensis. As to the kind of experiment: Leishmaniasis model, in vitro promastigotes, parasites/mL. It is filed as cell-based. Conditions: for activity in first experiment: 1 and 0.1 mcM (ethanol 0.1 and 0.01%). On the procedure:
The experiments were started using water as a solvent for the triarylmethanes (TPM, standing for triphenylmethane). However, water was not an effective solvent, so ethanol was substituted. Ethanol is toxic to leishmania, so a control group was tested with a higher ethanol concentration than that present on the TPM groups.
Each of FIGS. 4-7 has five or six groups with 50, 10, 1 and 0.1 mcM (micromolar) of TPMs (1, 2, 3 and 5) in ethanol, and two control groups: Ethanol 5% (50 mcM) and positive control.
The number of parasites was counted only after 48 hours. Again, an ethanol control at 0.1% was used.
The IC50 was calculated by the method described by Hills et al. (18) and Huber and Koella (19). Briefly, Hills proposed finding two concentrations, X1 and X2, such that the parasite density, Y1, at concentration X1 (and all lower concentrations) was more than half of the density found in the control, Y0, and that the parasite density, Y2, at concentration X2 (and all higher concentrations) was less than half of Y0. The IC50 was then found by linear extrapolation between X1 and X2: log(IC50)=log(X1)|[(Y1−Y0/2)/(Y1−Y2)][ log(X2)−log(X1)].
Compounds TPM 6 (MW=400.60), TPM 7 (MW=672.86), TPM 9 (MW=521.76) and TPM 10 (MW=662.95) were evaluated with the same methodology. They were tested using a maximum of 1% of ethanol in each treatment group. The ethanol control was also evaluated with the same concentration (1%).
The treatment groups were TPM 6 at a dosage of 0.05; 0.01; 0.005 and 0.001 mcM.

Data set [3] deals with bloodstream form of T. brucei. As to the kind of experiment: Bloodstream form of T. brucei, live cells, overnight treatment. The class given is cell-based. The note with it: at 500 nm. On the procedure:
These and other compounds were tested on live cells.
The experiment was conducted with one million cells of the bloodstream form of T. brucei. After over night treatment with different compounds (at concentrations of 50 and 100 μmolar), cells were counted and plotted with controls.

In data set [4] the test system is myeloma cells. As to the kind of experiment: Western blotting of myeloma cells. It is filed as cell-based. On the procedure: (§3) Imipramine blue was obtained from the department of dermatology, Emory University. MTT assays for myeloma cells (MM.1S, MM.1R, RPMI8226, and U266) were used to evaluate the cell viability. AnnexinV staining and cell cycle analysis was done by flow cytometry to assess the level of apoptosis and analyze cell cycle arrest. Western blotting was performed using antibodies to analyze the impact of imipramine blue on various targets. Bone marrow from myeloma patients were obtained with consent from the Winship Cancer Institute.
In general terms: In western blotting, separated proteins are transferred to a membrane and probed.

Data set [5] deals with myeloma cells. As to the kind of experiment: AnnexinV staining and cell cycle analysis by flow cytometry. It is filed as cell-based. On the procedure:
as §3
Background: A flow cytometer gives signals particle by particle.

Data set [6] relates to CD38 positive population of primary cells from myeloma patients. In words: Primary cells from myeloma patients, cell killing. The note with it: alone as a single agent or in combination with bortezomib. It is filed as cell-based, human. On the procedure:
as §3

The test system of data set [7] is myeloma cells (MM.1S, MM.1R, RPMI8226, and U266). In words: MTT cell viability assay, myeloma cells. It is filed as cell-based. On the procedure:
as §3
A general note: Tetrazolium dyes change colour on reduction, which living cells bring about.

Data set [8] in a line: ESR spectrum with superoxide dismutase. The note with it: room temperature ESR, conditions as in Li et al. On the procedure: Li used ESR to confirm the production of NADPH-dependent.O2—by isolated endosomes (Li et al., Molecular and Cellular Biology, January 2006, p. 140-154, 26(1):140-154 (2006)). ESR assays were conducted at room temperature using a Bruker model EMX ESR spectrometer (Bruker). Vesicular fractions from each sample were mixed with the spin trap, 50 mM 5,5-dimethyl-1-pyrroline N-oxide (DMPO), in a total volume of 500 μl of PBS, pH 7.4. This solution contained iminodiacetic acid-chelating resin (10 ml/liter; Sigma-Aldrich). The reaction was initiated by adding NADPH to 100 μM and was immediately placed into the ESR spectrometer. DMPO-hydroxyl radical adduct formation was assayed for 10 min. Instrument settings were as follows: receiver gain, 1×10^6; modulation frequency, 100 kHz; microwave power, 40.14 mW; modulation amplitude, 1.0 G; and sweep rate, 1 G/s.

A further data set has as its system HIF2a. In words: HIF2a expression model (quantitative RT-PCR). It is filed as cell-based. The note with it: WM35 PKB cells, 5 micromolar, 24 hours. On the procedure: In this expression model, WM35 PKB cells are exposed to 5 micromolar of test compounds for 24 hours. At the end of this period, cells are harvested for RNA, which is then reverse transcribed into cDNA, and levels of HIF2a message are quantified using quantitative RT-PCR and corrected for a housekeeping RNA message.

Data set [9] relates to leukemia and lymphoma cell lines. As to the kind of experiment: Cell growth inhibition in leukemia and lymphoma cell lines. It is filed as cell-based.
Where [10] appears, read: 48 hours, linear extrapolation method of Hills.
Where [11] appears, read: summary table of experiments 1-4.

For orientation: IC50 means the concentration that inhibits the measured activity by half. Turning to `CCN(CC)CCCC(C)Nc1ccnc2cc(Cl)ccc12` (stereo not drawn) [Chloroquine, reference compound], the half-maximal inhibitory concentration (IC50) is 7.9 nM in [1] (Plasmodium falciparum, D6, read-out: IC50 (nM) vs P. falciparum D6 (Chloroquine Sensitive)) and 140 nM in [2] (Plasmodium falciparum, DD2, read-out: IC50 (nM) vs P. falciparum Dd2 (Multidrug Resistant)).
For `c1ccc([I+]c2ccccc2)cc1` [DPI, diphenyliodonium], the “decrease in ang-2 expression compared to control” value with ang-2 mRNA is listed as 80%.
Take `CCN(CC)c1ccc(C(=C2C=C3CCc4ccccc4N(CCCN(C)C)C3=CC2)c2ccc(N(CC)CC)cc2)cc1` [TPM 2]: the “number of parasite/ml of blood versus control” value in the data set with T. brucei (s.c. 1 mg/mice/day from day of infection) is listed as “slightly less”. The “survival of infected mice” value in the data set on T. brucei (s.c. 1 mg/mice/day from day of infection, 5,000 parasites/mouse) is “died at day 4”. For the same molecule, the “activity in first experiment” value in the data set with Leishmania amazonensis is “have shown activity”. The growth inhibition in the data set on Leishmania amazonensis (1 mcM, 48 hours) is given as 72%. Further, the 50% inhibitory concentration (IC50) with Leishmania amazonensis (setting [10]) was about 600 nM; in the data set on Leishmania amazonensis (setting [11]), 600 nM.
`CCN(CC)c1ccc(C(c2ccc(N(CC)CC)cc2)=c2ccc3c(c2)CCc2ccccc2[N+]=3CCCN(C)C)cc1` [TPM 2]: in data set [3], the “cell toxicity to trypanosome toxicity” value is recorded as “favorable”. In addition, in the data set with T. brucei (1 mg IV), the lethality to mice result is given as “killed the mice”. The molecule further yielded a decrease in parasitemia in the data set with T. brucei (IV, 100 μg, mouse model) of 70%. Further, the IC50 in [1] (Plasmodium falciparum, D6; read-out: IC50 (nM) vs P. falciparum D6 (Chloroquine Sensitive)) is about 2500 nM; in data set [2] (Plasmodium falciparum, DD2; read-out: IC50 (nM) vs P. falciparum Dd2 (Multidrug Resistant)), 826 nM. The “cleavage of procaspases (caspase 8, 9, 3 and PARP)” value with myeloma cells [4] (0.5 μM to 10 μM, about 48 hrs) was “extensively cleaved”. Further, the phos-AKT level entry in the data set on myeloma cells [4] (MM.1S) was “not significantly reduced”. In the data set on myeloma cells [4] (MM.1S), the “phos-p53 and GADD45 levels” value was “upregulaed”. In addition, the cell cycle profile entry with myeloma cells [5] (MM.1S cells) is “induces both cell cycle arrests as well as apoptosis”. Further, the “apoptosis by annexin V staining” value in the data set with myeloma cells [5] (similar concentrations (6 uM to 10 μM)) is reported as “induced to undergo apoptosis”. Moreover, in data set [6], the “cell killing of CD38 positive population” value is on record as “very significant cell killing”. Further, in data set [7] (MM.1S cells), the “growth advantage by cytokines IL-6 and IGF1” value was “overcomes the growth advantage”. For the same molecule, the “combination with bortezomib or perifosine” value in data set [7] (myeloma cells) is “additive benefit in combination”. For the same molecule, the growth inhibition result in data set [7] (treated up to 72 hrs, between 6 uM to 10 μM) is recorded as “more than 80%”. Besides, in [8], the “radical formation with superoxide (ESR)” value is listed as “appear to form a radical by reacting with superoxide”. Besides, the “inhibition of HIF2a expression” value with HIF2a is “around 90%”. Further, in data set [9], the cell growth entry was “induced cell growth inhibition”.
Consider `CCN(CC)c1ccc(C(=C2C=CC3C(C[C@H](N)C(=O)O)=CNC3=C2)c2ccc(N(CC)CC)cc2)cc1` (stereo partly drawn) [TPM 5], for which, in the data set with Leishmania amazonensis, the “activity in first experiment” value is given as “did not”.
For the molecule `CCN(CC)c1ccc(C(=C2C=CC(C)C=C2)c2ccc(N(CC)CC)cc2)cc1` (stereo not drawn) [TPM 6], the IC50 in data set [1] (D6; read-out: IC50 (nM) vs P. falciparum D6 (Chloroquine Sensitive)) was 61.7 nM; in data set [2] (Dd2; read-out: IC50 (nM) vs P. falciparum Dd2 (Multidrug Resistant)) it was 48.9 nM; with Leishmania amazonensis (setting [10]), about 20 nM; in the data set on Leishmania amazonensis (setting [11]) it was 20 nM. Also, in data set [1] (summary over D6 and Dd2 strains), the “active / inactive in the malaria assay” value is given as “active”. Besides, the “relative activity among compounds tested” value in the data set on Leishmania amazonensis is recorded as “most active compound”. The growth inhibition with Leishmania amazonensis (0.01 mcM, 48 hours) was determined as 41%; in the data set on Leishmania amazonensis (0.05 mcM, 48 hours), 59%; in the data set on Leishmania amazonensis (0.1 mcM, 48 hours), 98%; in the data set on Leishmania amazonensis (0.5 mcM, 48 hours) it was 98%; in the data set with Leishmania amazonensis (1 mcM, 48 hours) it was 100%; with Leishmania amazonensis (5 mcM, 48 hours), 100%.
